Read-outs that look alike come from different tables or passages of the source.
Legend:
[1] = tested on: HCT116 WT; assay: Proliferation of HCT116 colorectal cell line, Cell TiterGlo; assay type: cell-based, human
Outline: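 Cell viability by CellTiter-Glo in parental HCT116, in a GCN2-knockout line, and in parental cells co-treated with ISRIB. IC50 from triplicate 10-point titrations; repeated values come from separate runs.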

[2] = tested on: HCT116 GCN2KO; assay: Proliferation of HCT116 cells with GCN2 knocked out (CRISPR), Cell TiterGlo; assay type: cell-based, human; settings: Homo sapiens, HCT-116; HCT116 cells with GCN2 knocked out using CRISPR; read-out: HCT116 IC50 (uM) HCT116 − GCN2KO
Method: Briefly, compounds were tested for their effect on proliferation of HCT116 colorectal cell lines using Cell TiterGlo (Promega). Each compound was tested in a 10-point dose response experiment in triplicate. Multiple values in the column titled HCT116 WT reflect separate independent experiments. The three columns titled “HCT116 WT (repeat)”, “HCT116-CGN2KO” and “HCT116 WT+ISRIB” provide data for selected compounds that were tested simultaneously under three conditions. The HCT116 WT column lists IC50 against the wild type HCT116 colorectal cancer cell line. The HCT116-CGN2KO lists IC50 data for cells in which one component of the integrated stress response, GCN2, has been knocked out using CRISPR technology.

[3] = Homo sapiens, HCT-116, wild type HCT116, 10-point dose response in triplicate, multiple values = separate independent experiments, read-out: HCT116 IC50 (uM) HCT116 WT
[4] = Homo sapiens, HCT-116, wild type HCT116, tested simultaneously with GCN2KO and +ISRIB, read-out: HCT116 IC50 (uM) HCT116 WT (repeat)
[5] = wild type HCT116, compound plus 10 nM of ISRIB, read-out: HCT116 IC50 (uM) HCT116 WT + ISRIB

Structure (SMILES) | IC50 [1, 3] [µM] | IC50 [1, 4] [µM] | IC50 [1, 5] [µM] | IC50 [2] [µM] | IC50 ([1]; wild type HCT116, 10-point dose response in triplicate, multiple values = separate independent experiments, read-out: HCT116 IC50 (uM) HCT116 WT) [µM]
Cn1nc(-c2ccc(NC(=O)c3ccccc3N=[N+]=[N-])cc2)cc1NC(=O)c1ccccc1 [SW393170, N-(4-(5-benzamido-1-methyl-1H-pyrazol-3-yl)phenyl)-2-azidobenzamide] | 0.03 | 0.12 | 0.84 | 0.93 | –
C#CCN(C(=O)c1ccccc1Cl)c1ccc(-c2cc(NC(=O)c3cccc(C4(C(F)(F)F)N=N4)c3)n(C)n2)cc1 [SW393173, 2-Chloro-N-(4-(1-methyl-5-(3-(3-(trifluoromethyl)-3H-diazirin-3-yl)benzamido)-1H-pyrazol-3-yl)phenyl)-N-(prop-2-yn-1-yl)benzamide] | 2.4 | 4 | 3.11 | 2.9 | –
C#CCN(C(=O)c1ccccc1Cl)c1ccc(-c2cc(NC(=O)c3ccccc3)n(C)n2)cc1 [SW393174, N-(4-(5-Benzamido-1-methyl-1H-pyrazol-3-yl)phenyl)-2-chloro-N-(prop-2-yn-1-yl)benzamil-de] | 6.1 | 7.18 | 6.52 | 6.37 | –
Cn1nc(-c2ccc(NC(=O)c3ccccc3N3CCOCC3)cc2)cc1NC(=O)c1ccccc1 [SW394697, N-(4-(5-Benzamido-1-methyl-1H-pyrazol-3-yl)phenyl)-2-morpholinobenzamide] | 0.77 | – | – | – | –
Cn1nc(-c2ccc(NC(=O)c3ccccc3Cl)cc2)cc1NC(=O)c1ccc(C(=O)c2ccccc2)cc1 [SW393188, N-(4-(5-(4-benzoylbenzamido)-1-methyl-1H-pyrazol-3-yl)phenyl)-2-chlorobenzamide] | 0.6 | – | – | – | –
Cn1nc(-c2ccc(NC(=O)c3ccccc3Cl)cc2)cc1NC(=O)C1CCC(F)(F)CC1 [SW394602, 2-Chloro-N-(4-(5-(4,4-difluorocyclohexane-1-carboxamido)-1-methyl-1H-pyrazol-3-yl)phen-yl)benzamide] | 0.049 | – | – | – | –
Cn1nc(-c2ccc(NC(=O)c3ccccc3-c3cccnc3)cc2)cc1NC(=O)c1ccccc1 [SW394486, N-(4-(5-Benzamido-1-methyl-1H-pyrazol-3-yl)phenyl)-2-(pyridin-3-yl)benzamide] | 0.025 | – | – | – | –
Cn1nc(-c2ccc(NC(=O)c3cccnc3C(F)(F)F)cc2)cc1NC(=O)c1ccccc1 [SW394603, N-(4-(5-Benzamido-1-methyl-1H-pyrazol-3-yl)phenyl)-2-(trifluoromethyl)nicotinamide] | 0.02 | – | – | – | –
Cn1nc(-c2ccc(NC(=O)C3CCOCC3)cc2)cc1NC(=O)c1ccccc1 [SW394517, N-(4-(5-Benzamido-1-methyl-1H-pyrazol-3-yl)phenyl)tetrahydro-2H-pyran-4-carboxamide] | 0.32 | – | – | – | –
Cn1nc(-c2ccc(NC(=O)c3ccccc3Cl)cc2)cc1NC(=O)Nc1ccccc1 [SW394872, 2-Chloro-N-(4-(1-methyl-5-(3-phenylureido)-1H-pyrazol-3-yl)phenyl)benzamide] | 0.11 | – | – | – | –
Cn1nc(-c2ccc(NC(=O)N3CCCCC3)cc2)cc1NC(=O)c1ccccc1 [SW394891-1, N-(4-(5-benzamido-1-methyl-1H-pyrazol-3-yl)phenyl)piperidine-1-carboxamide] | – | – | – | – | 0.24
CN1CCN(c2ccccc2C(=O)Nc2ccc(-c3cc(NC(=O)c4ccccc4)n(C)n3)cc2)CC1 [SW394698, N-(4-(5-Benzamido-1-methyl-1H-pyrazol-3-yl)phenyl)-2-(4-methylpiperazin-1-yl)benzamide] | 10 | – | – | – | –

Continued, values first:

IC50 [1, 3] [µM] | IC50 [1, 4] [µM] | IC50 [1, 5] [µM] | IC50 [2] [µM] | IC50 ([1]; wild type HCT116, 10-point dose response in triplicate, multiple values = separate independent experiments, read-out: HCT116 IC50 (uM) HCT116 WT) [µM] | Structure (SMILES)
0.01 | 0.03 | 0.3 | 0.21 | – | Cn1nc(-c2ccc(NC(=O)c3ccccc3Br)cc2)cc1NC(=O)c1ccccc1 [SW393133, N-(4-(5-benzamido-1-methyl-1H-pyrazol-3-yl)phenyl)-2-bromobenzamide]
3.2 | 2.04 | 3.1 | 3.69 | – | Cn1nc(-c2ccc(NC(=O)c3ccncc3)cc2)cc1NC(=O)c1ccccc1 [SW393063, N-(4-(5-benzamido-1-methyl-1H-pyrazol-3-yl)phenyl)isonicotinamide]
0.208 | 0.2 | 1.73 | 1.31 | – | COC(=O)c1cccc(C(=O)Nc2cc(-c3ccc(NC(=O)c4ccccc4)cc3)nn2C)c1 [SW389153, Methyl 3-((3-(4-benzamidophenyl)-1-methyl-1H-pyrazol-5-yl)carbamoyl)benzoate]
8.3 | 13.6 | – | 47 | – | COC(=O)c1cccc(C(=O)Nc2ccc(-c3cc(NC(=O)c4ccccc4)n(C)n3)cc2)c1 [SW393068, methyl 3-((4-(5-benzamido-1-methyl-1H-pyrazol-3-yl)phenyl)carbamoyl)benzoate]
0.13 | 0.43 | 2.55 | 2.31 | – | Cn1nc(-c2ccc(NC(=O)c3c(Cl)cccc3Cl)cc2)cc1NC(=O)c1ccccc1 [SW393144, N-(4-(5-benzamido-1-methyl-1H-pyrazol-3-yl)phenyl)-2,6-dichlorobenzamide]
0.012 | 0.02 | 0.19 | 0.17 | – | Cc1ccccc1C(=O)Nc1ccc(-c2cc(NC(=O)c3ccccc3)n(C)n2)cc1 [SW393134, N-(4-(5-benzamido-1-methyl-1H-pyrazol-3-yl)phenyl)-2-methylbenzamide]
0.008 | 0.02 | 0.09 | 0.08 | – | Cn1nc(-c2ccc(NC(=O)c3ccccc3C(F)(F)F)cc2)cc1NC(=O)c1ccccc1 [SW393124, N-(4-(5-benzamido-1-methyl-1H-pyrazol-3-yl)phenyl)-2-(trifluoromethyl)benzamide]
0.298 | 0.28 | 2.45 | 2.22 | – | Cc1cccc(C(=O)Nc2cc(-c3ccc(NC(=O)c4ccccc4)cc3)nn2C)c1 [SW389156, N-(3-(4-Benzamidophenyl)-1-methyl-1H-pyrazol-5-yl)-3-methylbenzamide]
2.1 | 2.37 | 8.72 | 10.5 | – | Cn1nc(-c2ccc(NC(=O)c3cccc(Cl)c3)cc2)cc1NC(=O)c1ccccc1 [SW393062, N-(4-(5-benzamido-1-methyl-1H-pyrazol-3-yl)phenyl)-3-chlorobenzamide]
0.2 | 0.48 | 3.73 | 4.05 | – | Cn1nc(-c2ccc(NC(=O)c3ccccc3)cc2)cc1NC(=O)c1cccnc1 [SW393128, N-(3-(4-benzamidophenyl)-1-methyl-1H-pyrazol-5-yl)nicotinamide]
0.5 | 1.46 | 7.5 | 6.64 | – | Cn1nc(-c2ccc(NC(=O)c3cccnc3)cc2)cc1NC(=O)c1ccccc1 [SW393127, N-(4-(5-benzamido-1-methyl-1H-pyrazol-3-yl)phenyl)nicotinamide]
0.335 | 0.32 | 2.6 | 3.14 | – | Cn1nc(-c2ccc(NC(=O)c3ccccc3)cc2)cc1NC(=O)c1cccc(Br)c1 [SW389162, N-(3-(4-benzamidophenyl)-1-methyl-1H-pyrazol-5-yl)-3-bromobenzamide]
0.788 | 0.38 | 2.59 | 2.54 | – | Cn1nc(-c2ccc(NC(=O)c3ccccc3)cc2)cc1NC(=O)c1cccc(F)c1 [SW389159, N-(3-(4-Benzamidophenyl)-1-methyl-1H-pyrazol-5-yl)-3-fluorobenzamide]
0.95 | 2.11 | 4.03 | 4.72 | – | Cn1nc(-c2ccc(NC(=O)c3ccccc3)cc2)cc1NC(=O)c1ccncc1 [SW393129, N-(3-(4-benzamidophenyl)-1-methyl-1H-pyrazol-5-yl)isonicotinamide]
0.01 | – | – | – | – | CC(=O)Nc1cccc(C(=O)Nc2cc(-c3ccc(NC(=O)c4ccccc4Cl)cc3)nn2C)c1 [SW394894-1, N-(4-(5-(3-acetamidobenzamido)-1-methyl-1H-pyrazol-3-yl)phenyl)-2-chlorobenzamide]
0.25 | – | – | – | – | Cc1ccncc1C(=O)Nc1ccc(-c2cc(NC(=O)c3ccccc3)n(C)n2)cc1 [SW394519, N-(4-(5-Benzamido-1-methyl-1H-pyrazol-3-yl)phenyl)-4-methylnicotinamide]
0.19 | – | – | – | – | Cn1nc(-c2ccc(C(=O)Nc3ccccc3Cl)cc2)cc1NC(=O)c1ccccc1 [SW393293, 4-(5-benzamido-1-methyl-1H-pyrazol-3-yl)-N-(2-chlorophenyl)benzamide]
0.58 | – | – | – | – | Cn1nc(-c2ccc(NC(=O)c3ncccc3Cl)cc2)cc1NC(=O)c1ccccc1 [SW394447, N-(4-(5-Benzamido-1-methyl-1H-pyrazol-3-yl)phenyl)-3-chloropicolinamide]
